Test results taken from patent US6395932B1, “1,2-diphenyl-2-propen-1-one derivatives” (Santen Pharmaceutical Co., Ltd., priority 1999, dated 2002).

These compounds were tested on bovine cultured trabecular meshwork cells (assay: Effects on morphology of bovine cultured trabecular meshwork cells (image analysis of cell area)). Conditions: Bos taurus, 3 h, drug treatment for three hours at 37° C., rate of change in area by image analysis, read-out: EC50 (concentration required to reduce the cell area of the trabecular meshwork cells by 50%).
Format: cell-based
Excerpt: In order to study utility of the present compounds in glaucoma, effects of the present compounds on morphology of trabecular meshwork cells were investigated.
The possibility has been reported that drugs having effects of increasing aqueous humor outflow can be found by evaluating effects of drugs on morphology of cultured trabecular meshwork cells (Invest. Ophthalmol. Vis. Sci., 33, 2631-2640 (1992)). Accordingly, effects of the present compounds on morphology of bovine cultured trabecular meshwork cells were studied in the similar manner to the method described in the above-mentioned literature.
Morphological changes in bovine cultured trabecular meshwork cells by adding the present compounds were quantitatively evaluated by image analysis.
Bovine trabecular meshwork cells (passage number 2 to 5) cultured in a basal medium for mammalian cell culture D-MEM (Dulbecco's Modified Eagle Medium, manufactured by Gibco Co., Ltd.) containing fetal bovine serum (10%), amphotericin B (2.5 μg/ml) and gentamicin (50 μg/ml) were treated with a trypsin-EDTA solution (0.05% trypsin, 0.53 mM EDTA·4Na) 24 hours before the later drug treatment and seeded in a 24-well plate (10^4 cells/well). Twelve hours before the later drug treatment, the cells were washed with phosphate-buffered physiological saline, and then the medium was replaced by D-MEM containing amphotericin B (2.5 μg/ml) and gentamicin (50 μg/ml) (hereinafter referred to as “medium A”).
A test compound was dissolved in dimethyl sulfoxide (DMSO), and the medium A was added to the solution, followed by sterilizing the solution by filtration. The medium A was further added to the solution to dilute it at a prescribed concentration. […]
Photographed cell images were incorporated from the photographs into an image analysis system with a CCD camera (manufactured by HAMAMATU Co., Ltd.). Outlines of the incorporated cell images were traced, and areas were measured. […]

EC50 [nM]	Structure (SMILES)
580	C=C(C(=O)c1ccc(/C=C/CN(C)C)cc1)c1ccccc1 [Compound No. 4-1, 1-[4-[(E)-3-(Dimethylamino)-1-propenyl]phenyl]-2-phenyl-2-propen-1-one]
840	C=C(C(=O)c1ccc(CCCN(C)C)cc1)c1ccccc1 [Compound No. 4-2, 1-[4-[3-(Dimethylamino)propyl]phenyl]-2-phenyl-2-propen-1-one]
62000	C=C(CC)C(=O)c1ccc(OCC(=O)O)c(Cl)c1Cl [Ethacrynic acid, reference compound]
